Measured values: PubChem BioAssay (NCI)
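Each compound was tested at five concentrations against cells in 96-well plates for 48 hours. TGI denotes the concentration required for complete inhibition of growth.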

What was measured:
Assay in all cases: NCI-60 cell line screen, 48 h
[1] = system: A549 NSCLC
[2] = system: OVCAR-8 ovarian
[3] = system: SK-MEL-28 melanoma
[4] = system: SN12C renal
[5] = system: NCI/ADR-RES ovarian
[6] = system: SK-MEL-2 melanoma
[7] = system: MOLT-4 leukemia
[8] = system: MDA-MB-435
[9] = system: HS 578T breast
[10] = system: SW-620 colon
[11] = system: CAKI-1 renal
[12] = system: UACC-62 melanoma
[13] = system: NCI-H522 lung
[14] = system: KM12 colon
[15] = system: CCRF-CEM leukemia
[16] = system: RPMI-8226 leukemia
[17] = system: BT-549 breast
[18] = system: EKVX NSCLC
[19] = system: SF-539 CNS
[20] = system: SK-MEL-5 melanoma
[21] = system: LOX IMVI melanoma
[22] = system: SK-OV-3 ovarian
[23] = system: MDA-N
[24] = system: HL-60(TB) leukemia
[25] = system: HT29 colon
[26] = system: RXF 393 renal
[27] = system: T-47D breast
[28] = system: SNB-19 CNS
[29] = system: MDA-MB-231 breast
[30] = system: HOP-92 NSCLC
[31] = system: OVCAR-3 ovarian
[32] = system: OVCAR-5 ovarian
[33] = system: SR leukemia
[34] = system: UACC-257 melanoma
[35] = system: SNB-75 CNS
[36] = system: U251 CNS
[37] = system: HCT-15 colon
[38] = system: HCT-116 colon
[39] = system: A498 renal
[40] = system: ACHN renal
[41] = system: MCF7 breast
[42] = system: DU-145 prostate
[43] = system: COLO 205 colon
[44] = system: SF-268 CNS
[45] = system: IGROV1 ovarian
[46] = system: K-562 leukemia
[47] = system: MALME-3M melanoma
[48] = system: UO-31 renal
[49] = system: PC-3 prostate
[50] = system: NCI-H226 lung
[51] = system: TK-10 renal
[52] = system: NCI-H460 lung
[53] = system: OVCAR-4 ovarian
[54] = system: SF-295 CNS
[55] = system: NCI-H23 lung
[56] = system: 786-0 renal
[57] = system: HCC-2998 colon
[58] = system: HOP-62 NSCLC
[59] = system: M14 melanoma
[60] = system: LXFL 529 NSCLC
[61] = system: KM20L2 colon
[62] = system: SNB-78 CNS
[63] = system: DLD-1 colon
[64] = system: M19-MEL melanoma
[65] = system: DMS 114 small cell lung
[66] = system: DMS 273 small cell lung
[67] = system: RXF-631 renal
[68] = system: HOP-18 NSCLC

## CC(C)=CC(Cc1ccccc1)S(=O)(=O)c1nc2ccccc2s1 (stereo not given)
[1]
  TGI: 60.1 µM
[2]
  TGI: 35.1 µM
[3]
  TGI: 32.3 µM
[4]
  TGI: 31.8 µM
[5]
  TGI: 50 µM
[6]
  TGI: 28.5 µM
[7]
  TGI: 7.95 µM
[8]
  TGI: 32.4 µM
[9]
  TGI: > 80 µM
[10]
  TGI: 37.2 µM
[11]
  TGI: 22.1 µM
[12]
  TGI: 46.5 µM
[13]
  TGI: 29 µM
[14]
  TGI: 35.8 µM
[15]
  TGI: 7.49 µM
[16]
  TGI: 35 µM
[17]
  TGI: 38.6 µM
[18]
  TGI: 41.7 µM
[19]
  TGI: 30.8 µM
[20]
  TGI: 27.1 µM
[21]
  TGI: 11.9 µM
[22]
  TGI: 47.5 µM
[23]
  TGI: 29.7 µM
[24]
  TGI: 9.62 µM
[25]
  TGI: 41.7 µM
[26]
  TGI: 41.9 µM
[27]
  TGI: > 67.2 µM
[28]
  TGI: 32 µM
[29]
  TGI: 52 µM
[30]
  TGI: 41.7 µM
[31]
  TGI: 29.2 µM
[32]
  TGI: 36.7 µM
[33]
  TGI: 5.24 µM
[34]
  TGI: 54.2 µM
[35]
  TGI: 41.1 µM
[36]
  TGI: 29.4 µM
[37]
  TGI: 49.5 µM
[38]
  TGI: 28.3 µM
[39]
  TGI: 35.5 µM
[40]
  TGI: 42.9 µM
[41]
  TGI: 31.5 µM
[42]
  TGI: 31.5 µM
[43]
  TGI: 34.9 µM
[44]
  TGI: 36.5 µM
[45]
  TGI: 62.7 µM
[46]
  TGI: 33.4 µM
[47]
  TGI: 32.1 µM
[48]
  TGI: 27.5 µM
[49]
  TGI: 31.9 µM
[50]
  TGI: 29.6 µM
[51]
  TGI: 35.8 µM
[52]
  TGI: 50.1 µM
[53]
  TGI: 37.1 µM
[54]
  TGI: 66.6 µM
[55]
  TGI: 48.8 µM
[56]
  TGI: 33.1 µM
[57]
  TGI: 33.6 µM
[58]
  TGI: 64.3 µM
[59]
  TGI: 31.2 µM

## C/C(CC(=O)Nc1ccc(C)c(C)c1)=N\NC(N)=O
[1]
  TGI: > 100 µM
[2]
  TGI: > 100 µM
[3]
  TGI: > 100 µM
[60]
  TGI: > 100 µM
[6]
  TGI: > 100 µM
[7]
  TGI: > 100 µM
[10]
  TGI: > 100 µM
[12]
  TGI: > 100 µM
[13]
  TGI: > 100 µM
[14]
  TGI: > 100 µM
[15]
  TGI: > 100 µM
[16]
  TGI: > 100 µM
[18]
  TGI: > 100 µM
[61]
  TGI: > 100 µM
[19]
  TGI: > 100 µM
[20]
  TGI: > 100 µM
[21]
  TGI: > 100 µM
[22]
  TGI: > 100 µM
[62]
  TGI: > 100 µM
[24]
  TGI: > 100 µM
[63]
  TGI: > 100 µM
[25]
  TGI: > 100 µM
[26]
  TGI: > 100 µM
[30]
  TGI: > 100 µM
[31]
  TGI: > 100 µM
[32]
  TGI: > 100 µM
[34]
  TGI: > 100 µM
[64]
  TGI: > 100 µM
[35]
  TGI: > 100 µM
[36]
  TGI: > 100 µM
[38]
  TGI: > 100 µM
[39]
  TGI: > 100 µM
[40]
  TGI: > 100 µM
[43]
  TGI: > 100 µM
[44]
  TGI: > 100 µM
[45]
  TGI: > 100 µM
[46]
  TGI: > 100 µM
[47]
  TGI: > 100 µM
[48]
  TGI: > 100 µM
[50]
  TGI: > 100 µM
[51]
  TGI: > 100 µM
[52]
  TGI: > 100 µM
[65]
  TGI: > 100 µM
[54]
  TGI: > 100 µM
[55]
  TGI: > 100 µM
[56]
  TGI: > 100 µM
[57]
  TGI: > 100 µM
[58]
  TGI: > 100 µM
[59]
  TGI: > 100 µM

## Oc1ccc2ccccc2c1N=Nc1ccsc1
[1]
  TGI: > 100 µM
[2]
  TGI: > 100 µM
[3]
  TGI: > 100 µM
[4]
  TGI: > 100 µM
[60]
  TGI: > 100 µM
[6]
  TGI: > 100 µM
[7]
  TGI: > 100 µM
[10]
  TGI: > 100 µM
[11]
  TGI: > 100 µM
[12]
  TGI: > 100 µM
[13]
  TGI: > 100 µM
[14]
  TGI: > 100 µM
[15]
  TGI: > 100 µM
[16]
  TGI: > 100 µM
[61]
  TGI: > 100 µM
[19]
  TGI: > 100 µM
[20]
  TGI: > 100 µM
[21]
  TGI: > 100 µM
[22]
  TGI: > 100 µM
[62]
  TGI: > 100 µM
[24]
  TGI: > 100 µM
[63]
  TGI: > 100 µM
[25]
  TGI: > 100 µM
[26]
  TGI: > 100 µM
[28]
  TGI: > 100 µM
[66]
  TGI: > 100 µM
[67]
  TGI: > 100 µM
[30]
  TGI: > 100 µM
[31]
  TGI: > 100 µM
[32]
  TGI: > 100 µM
[33]
  TGI: > 100 µM
[34]
  TGI: > 100 µM
[64]
  TGI: > 100 µM
[35]
  TGI: > 100 µM
[36]
  TGI: > 100 µM
[37]
  TGI: > 100 µM
[38]
  TGI: > 100 µM
[39]
  TGI: > 100 µM
[40]
  TGI: > 100 µM
[43]
  TGI: > 100 µM
[44]
  TGI: > 100 µM
[45]
  TGI: > 100 µM
[46]
  TGI: > 100 µM
[47]
  TGI: > 100 µM
[48]
  TGI: > 100 µM
[50]
  TGI: > 100 µM
[51]
  TGI: > 100 µM
[68]
  TGI: > 100 µM
[52]
  TGI: > 100 µM
[65]
  TGI: > 100 µM
[53]
  TGI: > 100 µM
[54]
  TGI: > 100 µM
[55]
  TGI: > 100 µM
[56]
  TGI: > 100 µM
[57]
  TGI: > 100 µM
[58]
  TGI: > 100 µM
[59]
  TGI: > 100 µM
